A short description of data set [1]: Pharmacokinetics assay in SD rats after intragastric administration (plasma LC/MS/MS). Type of data set: in vivo. The note with it: po 5.0 mg/kg; for CL/F: read-out: Cl/F—obs (clearance). How it is done: SD rats were used as test animals. The drug concentration in plasma at different time points was determined by LC/MS/MS method after intragastrical administration of the crystal form 2 of the malate of the present invention and free form. The pharmacokinetic behavior and property of the crystal form 2 of the malate of the present invention and free form were studied and evaluated in SD rats.
Samples: crystal form 2 of the malate of the present invention and free form (the product of Example 1), prepared according to the methods of Examples 14 and 1.
Test animals: 8 healthy SD rats, half male and half female, were divided in two groups, and purchased from SINO-BRITSH SIPPR/BK LAB. ANIMAL LTD., CO, with certificate No.: SOCK (Shanghai) 2008-0016.
Preparation of the test compounds: the test compounds were added to 0.5% CMC-Na to prepare 0.5 mg/mL homogeneous suspensions for oral administration by ultrasound.
Administration: after an overnight fasting, 8 healthy SD rats, half male and half female, were administered the test compounds intragastrically at an administration volume of 10 mL/kg.
After an overnight fasting, 8 healthy SD rats, half male and half female, were administered the test compounds intragastrically. Blood samples (0.1 mL) were taken by jugular vein puncture before administration and at 0.5, 1, 2, 4, 6, 8, 12, and 24 hours after administration, and heparin sodium was used as an anticoagulant. The blood samples were centrifuged for 10 minutes at 3,500 rpm to separate the blood plasma, which was stored at −20° C. The content of the test compound in the plasma of SD rats after intragastric administration was determined by LC/MS/MS method.

Data set [2] in a line: Salt formation study (solubility, hygroscopicity). In kind it is physicochemical. The note with it: in words. The source says: In a preferred embodiment, the salt can be selected from the group consisting of tartrate, hydrochloride, sulfate, methanesulfonate, phosphate, citrate, maleate, fumarate, malate, benzenesulfonate, p-toluenesulfonate and hydrobromide, and most preferably L-tartrate and malate. The L-tartrate of (R)-5-cyano-N-(1-(2-hydroxy-2-(4-methyl-1-oxo-1,3-dihydroisobenzofuran-5-yl)ethyl) piperidin-4-yl)-4-methoxypicolinamide, i.e. the compound of the following formula (I), can be obtained by reacting (R)-5-cyano-N-(1-(2-hydroxy-2-(4-methyl-1-oxo-1,3-dihydroisobenzofuran-5-yl)ethyl) piperidin-4-yl)-4-methoxypicolinamide with L-tartaric acid. The hydrochloride, sulfate, methanesulfonate, phosphate, citrate, maleate, fumarate, malate, benzenesulfonate, p-toluenesulfonate and hydrobromide of (R)-5-cyano-N-(1-(2-hydroxy-2-(4-methyl-1-oxo-1,3-dihydroisobenzofuran-5-yl)ethyl) piperidin-4-yl)-4-methoxypicolinamide can be prepared by using a similar method. […]

Data set [3] in a line: Special stability study of crystal form I (grinding, heating, tableting; XRPD/DSC). Type of data set: physicochemical. The source says: Crystal form I of the compound of formula (I) prepared according to the method of Example 2 was ground, heated and tableted.
The nature of data set [4]: Stability of crystal forms spread flat in air under lighting, heating and high humidity (purity by HPLC). In kind it is physicochemical. Here is the method: The sample of crystal form I of the compound of formula (I) prepared in Example 2 and the sample of crystal form II prepared in Example 3 were spread flat in the air respectively to test the stability under conditions of lighting (4500 Lux), heating (40° C., 60° C.), and high humidity (RH 75%, RH 90%). Samplings were carried out on Day 5 and Day 10.

Where [5] appears, read: both sexes, rat, plasma, 0.5% CMC-Na suspension.

As for `COc1cc(C(=O)NC2CCN(C[C@H](O)c3ccc4c(c3C)COC4=O)CC2)ncc1C#N.O=C(O)CC(O)C(=O)O` [Crystal form 2 of the malate, (R)-5-cyano-N-(1-(2-hydroxy-2-(4-methyl-1-oxo-1,3-dihydroisobenzofuran-5-yl)ethyl)piperidin-4-yl)-4-methoxypicolinamide], the CL/F in data set [1] (setting [5]) is 6.87 mL/min/kg. The half-life in data set [1] (both sexes, rat, plasma, 0.5% CMC-Na suspension, read-out: T1/2 (half-life) (converted)) was 5.24 h. Further, in data set [1] (both sexes, rat, plasma, 0.5% CMC-Na suspension, read-out: Vz/F—obs (apparent distribution volume)), the Vd/F stood at 3.09 L/kg. In data set [1] (0.5% CMC-Na suspension), the “AUClast (area under curve 0→t)” value is 13365 ng·h/mL. For the same compound, in data set [1] (in words), the “clearance compared to the free form” value was “lower”, the “exposure dose compared to the free form” value is “higher” and the “half-life compared to the free form” value is “longer”.
Regarding `COc1cc(C(=O)NC2CCN(C[C@H](O)c3ccc4c(c3C)COC4=O)CC2)ncc1C#N` [Free form, (R)-5-cyano-N-(1-(2-hydroxy-2-(4-methyl-1-oxo-1,3-dihydroisobenzofuran-5-yl)ethyl)piperidin-4-yl)-4-methoxypicolinamide], in data set [1] (setting [5]), the CL/F was determined as 9.82 mL/min/kg. The “AUClast (area under curve 0→t)” value in data set [1] (0.5% CMC-Na suspension) stood at 9283 ng·h/mL. In addition, the solubility result in data set [2] is given as “low”.
Turning to `COc1cc(C(=O)NC2CCN(C[C@H](O)c3ccc4c(c3C)COC4=O)CC2)ncc1C#N.O=C(O)C(O)C(O)C(=O)O` [Crystal form I, L-tartrate of (R)-5-cyano-N-(1-(2-hydroxy-2-(4-methyl-1-oxo-1,3-dihydroisobenzofuran-5-yl)ethyl)piperidin-4-yl)-4-methoxypicolinamide], the results for the “DSC peak after treatment” value in data set [3] (Grinding treatment for 10 minutes in a mortar under nitrogen), in data set [3] (Heating treatment for 3 hours at 80° C.) and in data set [3] (Tableting treatment) were 214.17 °C, 214.40 °C and 214.44 °C, respectively. Also, the “stability of the crystal form” value in data set [3] (grinding, heating / pressure (tableting), in words) was “stable”. In addition, the “purity as detected by HPLC” value in data set [4] (40° C., day 0) is listed as 99.67%; in data set [4] (40° C., day 5), 99.52%; in data set [4] (40° C., day 10) it was 99.45%; in data set [4] (60° C., day 0), 99.67%; in data set [4] (60° C., day 5) it was 99.55%; in data set [4] (60° C., day 10), 99.39%. In addition, the “purity as detected by HPLC” value in data set [4] (Lighting (4500 Lux), day 0) stood at 99.67%; in data set [4] (Lighting (4500 Lux), day 5), 99.54%; in data set [4] (Lighting (4500 Lux), day 10) it was 99.34%; in data set [4] (RH 75%, day 0), 99.67%; in data set [4] (RH 75%, day 5), 99.53%; in data set [4] (RH 75%, day 10), 99.39%. In addition, the “purity as detected by HPLC” value in data set [4] (RH 90%, day 0) is 99.67%; in data set [4] (RH 90%, day 5) it was 99.59%; in data set [4] (RH 90%, day 10), 99.43%. Besides, the “stability under conditions of lighting, high temperature and high humidity” value in data set [4] (in words) is listed as “stable”. In addition, the “stability compared with crystal form II” value in data set [4] (spread flat in air, lighting, high temperature and high humidity, in words) is given as “significantly better”.
For the compound `COc1cc(C(=O)NC2CCN(C[C@H](O)c3ccc4c(c3C)COC4=O)CC2)ncc1C#N` [sulfate, (R)-5-cyano-N-(1-(2-hydroxy-2-(4-methyl-1-oxo-1,3-dihydroisobenzofuran-5-yl)ethyl)piperidin-4-yl)-4-methoxypicolinamide], the hygroscopicity entry in data set [2] (salt formation study) is on record as “obviously hygroscopic”.
On to `COc1cc(C(=O)NC2CCN(C[C@H](O)c3ccc4c(c3C)COC4=O)CC2)ncc1C#N.O=C(O)C(O)C(O)C(=O)O` [Crystal form II, L-tartrate of (R)-5-cyano-N-(1-(2-hydroxy-2-(4-methyl-1-oxo-1,3-dihydroisobenzofuran-5-yl)ethyl)piperidin-4-yl)-4-methoxypicolinamide], for which the “purity as detected by HPLC” value in data set [4] (40° C., day 0) is listed as 99.47%; in data set [4] (40° C., day 5) it was 99.38%; in data set [4] (40° C., day 10), 99.15%; in data set [4] (60° C., day 0), 99.47%; in data set [4] (60° C., day 5) it was 99.22%; in data set [4] (60° C., day 10), 98.87%. Further, the “purity as detected by HPLC” value was 99.47% in data set [4] (Lighting (4500 Lux), day 0); 99.23% in data set [4] (Lighting (4500 Lux), day 5); 98.62% in data set [4] (Lighting (4500 Lux), day 10); 99.47% in data set [4] (RH 75%, day 0); 99.30% in data set [4] (RH 75%, day 5); 99.10% in data set [4] (RH 75%, day 10). For the same compound, the “purity as detected by HPLC” value in data set [4] (RH 90%, day 0) turned out to be 99.47%; in data set [4] (RH 90%, day 5), 99.30%; in data set [4] (RH 90%, day 10), 99.10%.

For the origin of these results see US11059810B2, “Pharmaceutically acceptable salt as renal outer medullary potassium channel inhibitor” (Jiangsu Hengrui Medicine Co., Ltd., priority 2016, dated 2021).
